{"source": "patent US11414398B2", "about": "“Selective organic cation transporters inhibitors for the treatment of depressive disorders” (priority 2017, dated 2022)", "key": {"[1]": {"biological_target": "T1, OCT3 (Homo sapiens, UniProt O75751)", "T1 sequence (O75751 1-556)": "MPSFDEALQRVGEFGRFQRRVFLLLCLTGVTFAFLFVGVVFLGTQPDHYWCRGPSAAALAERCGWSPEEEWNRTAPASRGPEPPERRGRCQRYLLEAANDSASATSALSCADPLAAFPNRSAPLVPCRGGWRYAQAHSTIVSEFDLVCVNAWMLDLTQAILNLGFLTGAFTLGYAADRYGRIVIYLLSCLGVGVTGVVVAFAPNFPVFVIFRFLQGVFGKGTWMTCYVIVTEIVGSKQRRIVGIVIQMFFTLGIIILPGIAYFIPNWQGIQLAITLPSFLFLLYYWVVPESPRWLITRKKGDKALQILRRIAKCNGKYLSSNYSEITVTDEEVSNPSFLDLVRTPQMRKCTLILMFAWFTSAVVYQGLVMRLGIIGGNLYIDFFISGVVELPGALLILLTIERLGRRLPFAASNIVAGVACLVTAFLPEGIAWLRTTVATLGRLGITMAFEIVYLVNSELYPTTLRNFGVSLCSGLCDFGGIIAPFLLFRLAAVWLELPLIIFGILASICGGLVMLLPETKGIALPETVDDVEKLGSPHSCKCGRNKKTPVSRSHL", "conditions": "for OCT3; cited from earlier work"}, "[2]": {"conditions": "after injection in rabbits; cited from earlier work"}, "[3]": {"tested_on": "α2-adrenoreceptors", "conditions": "cited from earlier work"}, "[4]": {"tested_on": "α1-adrenoreceptors", "conditions": "cited from earlier work"}, "[5]": {"conditions": "blood after 3 weeks of treatment, corticosterone model; means ± SEM (n = 6)", "experimental": "(§1) Corticosterone-induced depression. To induce a chronic depression-like state, individually housed mice were administered corticosterone ([…]; Sigma-Aldrich) dissolved in 0.45% (wt/vol) hydroxypropyl-b-cyclodextrin (Sigma-Aldrich) as in (Bacq et al., Mol. Psychiatry, 2012, 17, 926-939). […] The mice were tested successively for coat sate, sucrose consumption, elevated O-maze, object location test and social interaction, before antidepressant treatment, and after 10 days and 3 weeks of treatment. The experimental scheme is represented on FIG. 1A.\nBlood parameter evaluation. Blood was collected in lithium heparin after the 3 weeks of treatment. Hemograms were performed with a Siemens ADVIAZ 120 apparatus. For biochemistry, blood was centrifuged at 2000 g for 10 min at +4° C. and supernatant was analyzed with a COBAS 6000 (Roche) apparatus."}, "[6]": {"tested_on": "corticosterone-induced depression model", "assay": "Social interaction test, corticosterone-induced depression", "type": "in vivo, mice", "conditions": "compared to corticosterone", "experimental": "(§2) Corticosterone-induced depression. […] The experimental scheme is represented on FIG. 1A. Social interaction test. The social interaction test was performed in a white open-field (42×42 cm) containing an empty wire mesh cage (10×6.5 cm) located at an extremity of the field in a low luminosity environment (25 lux). Each test mouse was allowed to explore the openfield for two consecutive sessions of 2.5 min. During the second session, an unfamiliar mouse was introduced into the cage. Between the two sessions, the test mouse was placed back into its home cage for approximately one minute. The time spent by the test mouse in the interaction zone, defined as an 8-cm-wide region surrounding the mesh cage, was measured in both sessions by video tracking (Viewpoint, Lyon, France) (FIGS. 1G and 1I)."}, "[7]": {"tested_on": "social defeat model", "assay": "Social defeat model, social interaction test", "type": "in vivo, mice", "conditions": "after 3 weeks of treatment; fluoxetine 17 mg/kg, compound (I-1) 0.1 mg/kg as printed", "experimental": "as §2, with “Social defeat model. For social defeat, 8-week-old C57Bl/6J mice were submitted to social defeat stress for 10 consecutive days as described (Berton et al., Science, 2006, 311(5762), 864-8).” for “Corticosterone-induced depression.”, “1H.” for “1A.”"}, "[8]": {"tested_on": "corticosterone-induced depression model", "assay": "Open-field test, corticosterone-induced depression", "type": "in vivo, mice", "conditions": "compared to corticosterone; I-1 0.1 mg/kg/day, fluoxetine 15 mg/kg/day or both, i.p.", "experimental": "as §1\nOpen-field test. The open field consisted of a white Plexiglas field (100×100×30 cm) with the center brightly illuminated (500 lux). General locomotor activity in the center and periphery of the open field were scored for 9 min. The time and number of entries in the center zone (60×60 cm) were evaluated as an index of anxiety-related response (FIG. 2B)."}, "[9]": {"tested_on": "corticosterone-induced depression model", "assay": "Sucrose preference test, corticosterone-induced depression", "type": "in vivo, mice", "conditions": "i.p. daily: I-1 0.1 mg/kg/day, fluoxetine 15 mg/kg/day or both", "experimental": "Corticosterone-induced depression. […] The experimental scheme is represented on FIG. 1A. Sucrose preference test. Singled-house mice were first habituated for 48 h to drink water from two bottles."}, "[10]": {"assay": "Effect on weight, corticosterone-induced depression", "type": "in vivo, mice", "conditions": "weight measured daily; I-1 0.1 mg/kg/day, fluoxetine 15 mg/kg/day or both, i.p.", "experimental": "Corticosterone-induced depression. […] The experimental scheme is represented on FIG. 1A. Effect on weight. The weight of tested mice was measured daily in the morning (FIG. 2D)."}, "[11]": {"tested_on": "corticosterone-induced depression model", "assay": "Elevated O-maze test, corticosterone-induced depression", "type": "in vivo, mice", "conditions": "after 21 days; i.p. daily: I-1 0.1 mg/kg/day, fluoxetine 15 mg/kg/day or both", "experimental": "Corticosterone-induced depression. […] The experimental scheme is represented on FIG. 1A. Elevated O-maze test. The elevated O-maze consisted of an annular runway positioned 40 cm above the floor and divided into two opposing 90° closed sectors and two 90° open sectors. The mice were individually placed in the closed sector and their behavior recorded over a 5-min period. The time spent in each sector and the number of sector entries (a sector entry was defined as all four of the paws being placed in a sector) were determined by video tracking (Viewpoint, Lyon, France) (FIGS. 1D and 1E)."}, "[12]": {"tested_on": "corticosterone-induced depression model", "assay": "Coat state, corticosterone-induced depression", "type": "in vivo, mice", "conditions": "both time points; i.p. daily: I-1 0.1 mg/kg/day, fluoxetine 15 mg/kg/day or both", "experimental": "Corticosterone-induced depression. […] The experimental scheme is represented on FIG. 1A. Coat state. The coat state of each animal was assessed weekly as a measure of motivation toward self-care. It was evaluated as the sum of the score of different parts of the body, ranging between 0 for a well-groomed coat and 1 for an unkempt coat for head, neck, dorsal/ventral coat, tail and forepaws/hindpaws (FIG. 1B)."}, "[13]": {"tested_on": "autophagy and proteasome pathways in the brain", "assay": "Toxicity: cell death pathways in the brain, Western blots", "conditions": "quantitative Western blot, prefrontal cortex and hippocampus, corticosterone model", "experimental": "as §1\nCell death pathways in the brain—Western blots. […] Samples were homogenized by sonication in 2 vol of ice-cold phosphate-buffered saline containing 1% Triton X-100, protease inhibitors (Complete Protease Inhibitor Cocktail, Roche Diagnostics, Basel, Switzerland) and phosphatase inhibitors (Phosphatase Inhibitor Cocktail 3; Sigma-Aldrich). Protein concentrations were determined by Bradford's method. Proteins samples (15 μg) suspended in NuPage LDS sample buffer (Invitrogen, Carlsbad, Calif., USA) were separated by Bis-Tris sodium dodecyl sulfate polyacrylamide gel electrophoresis (10% gels) and transferred onto nitrocellulose membranes (Invitrogen). Transfer efficacy was controlled by Ponceau S staining. Unspecific binding sites were blocked in Tris-buffered saline containing 0.1% Tween-20 and 5% nonfat milk and membranes were immunoprobed with antibodies against β-actin ( 1/2500) and β-catenin ( 1/300) from Sigma-Aldrich or LC3B ( 1/5000) from Abcam. Membranes were incubated with infrared-labeled secondary antibodies (IRDye 700DX and IRDye 800CW; 1/5000; Rockland, Gilbertsvillle, Pa., USA). Immunoblotting was quantified with the Odyssey Infrared Imaging System and Application Software version 3.0 (LI-COR Biosciences, Lincoln, Nebr., USA)."}}, "data": [{"smiles": "CC(C)N1/C(=C\\c2cc[n+](C(C)C)c3ccccc23)C=Cc2ccccc21", "note": "[Compound D24, disprocynium 24]", "values": [{"measurement": "Ki", "setting": "[1]", "value": 14, "unit": "nM"}, {"measurement": "hypotensive effects (blood pressure)", "setting": "[2]", "value": "decreasing blood pressure markedly"}, {"measurement": "inhibition of α2-adrenoreceptors", "setting": "[3]", "value": "inhibits"}, {"measurement": "inhibition of α1-adrenoreceptors", "setting": "[4]", "value": "inhibits"}]}, {"smiles": "CNCCC(Oc1ccc(C(F)(F)F)cc1)c1ccccc1", "note": "(stereo not shown) [fluoxetine, reference compound]", "values": [{"measurement": "ALP", "setting": "[5]", "value": "47.4 ± 6.2", "unit": "U/L"}, {"measurement": "ALT", "setting": "[5]", "value": "75.1 ± 12.4", "unit": "U/L"}, {"measurement": "AST", "setting": "[5]", "value": "584.2 ± 87.6", "unit": "U/L"}, {"measurement": "Creatinine", "setting": "[5]", "value": "0.5 ± 0.04", "unit": "mg/dL"}, {"measurement": "Hematies", "setting": "[5]", "value": "8.5 ± 0.3", "unit": "T/L"}, {"measurement": "Leucocytes", "setting": "[5]", "value": "2.99 ± 0.08", "unit": "g/L"}, {"measurement": "Platelets", "setting": "[5]", "value": "357 ± 57.2"}, {"measurement": "Total bilirubin", "setting": "[5]", "value": "0.12 ± 0.01", "unit": "mg/dL"}, {"measurement": "Urea", "setting": "[5]", "value": "64.2 ± 4.1", "unit": "mg/dL"}, {"measurement": "interaction time in social interaction test", "setting": "[6]; 11 days of treatment", "value": "significant effects on interaction time"}, {"measurement": "interaction time in social interaction test", "setting": "[6]; 21 days of treatment", "value": "significant effects on interaction time"}, {"measurement": "reversal of social aversion (time in interaction zone with target)", "setting": "[7]", "value": "reversed only by fluoxetine"}, {"measurement": "locomotor activity at the periphery of the open field", "setting": "[8]", "value": "significant effect"}, {"measurement": "sucrose preference", "setting": "[9]; 11 days of treatment", "value": "but not fluoxetine alone, significantly increased sucrose preference at 11 days"}, {"measurement": "sucrose preference", "setting": "[9]; 21 days of treatment", "value": "significantly increased sucrose preference at 21 days"}, {"measurement": "effect on weight", "setting": "[10]", "value": "no significant effect"}, {"measurement": "latency to enter the open zone of the elevated O-maze", "setting": "[11]", "value": "decreased the latency to enter this zone"}, {"measurement": "time in the open zone of the elevated O-maze", "setting": "[11]", "value": "increased the time in the open zone"}, {"measurement": "coat state", "setting": "[12]", "value": "improved coat state at both time points"}, {"measurement": "LC3II/LC3I ratios", "setting": "[13]", "value": "comparable LC3II/LC3I ratios"}, {"measurement": "β-catenin levels", "setting": "[13]", "value": "comparable"}]}]}
